# Tests used:
# Settings in all cases: compound at 10 μM
# Human Melanocortin (MC4) = biological target: T1, Human Melanocortin (MC4) (Homo sapiens, UniProt P32245); assay: Radioligand binding, human melanocortin MC4 membranes, FlashPlate, [125I]-NDP-αMSH
# T1 construct: purchased Perkin Elmer Biosignal
# Procedure, shortened: (§1)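 Cloned human receptor membranes were coated onto FlashPlate wells and incubated with radioligand and compound (added from a 0.5 mM DMSO daughter plate) for 1 hour at room temperature in the dark. Scintillation counting gave percent inhibition, with DMSO defining total and reference ligand defining non-specific binding.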
# Human melanocortin (MC5) = biological target: T2, Human melanocortin (MC5) (Homo sapiens, UniProt P33032); assay: Radioligand binding, human melanocortin MC5 membranes, FlashPlate, [125I]-NDP-αMSH
# T2 construct: purchased Perkin Elmer Biosignal
# Procedure, shortened: as §1
# [1] = biological target: T3, Human neuropeptide Y (NPY-Y1) (Homo sapiens, UniProt P25929); assay: Radioligand binding, human neuropeptide Y NPY-Y1 membranes, FlashPlate, [125I]-PYY
# T3 construct: purchased Perkin Elmer Biosignal
# T3 sequence (P25929 1-384): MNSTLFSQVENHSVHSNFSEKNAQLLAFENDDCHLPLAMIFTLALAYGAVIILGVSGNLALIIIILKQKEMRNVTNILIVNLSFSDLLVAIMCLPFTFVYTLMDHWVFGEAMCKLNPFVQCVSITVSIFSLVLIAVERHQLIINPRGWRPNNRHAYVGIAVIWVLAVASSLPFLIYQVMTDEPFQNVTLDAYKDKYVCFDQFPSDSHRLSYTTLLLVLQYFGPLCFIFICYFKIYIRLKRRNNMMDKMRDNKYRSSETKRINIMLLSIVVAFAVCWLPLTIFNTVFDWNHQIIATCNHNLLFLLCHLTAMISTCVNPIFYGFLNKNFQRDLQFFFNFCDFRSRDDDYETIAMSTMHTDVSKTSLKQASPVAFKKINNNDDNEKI
# Procedure, shortened: as §1
# Human neurokinin (NK1) = biological target: T4, Human neurokinin (NK1) (Homo sapiens, UniProt P25103); assay: Radioligand binding, human neurokinin NK1 membranes, filtration, [125I]-Substance P
# T4 construct: purchased Perkin Elmer Biosignal
# Procedure, shortened: (§2)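 Filtration binding on cloned human receptor membranes (1 Unit/well), [125I]-Substance P for NK1 and [3H]-Diprenorphine for KOP, 1 h at room temperature. Filters PEI-presoaked, washed with cold 50 mM Tris-HCl pH 7.4, counted by scintillation; percent inhibition calculated, reference ligand defining non-specific binding.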
# Human μ-opioid (MOP) = biological target: T5, Human μ-opioid (MOP) (Homo sapiens, UniProt P35372); assay: Radioligand binding, human μ-opioid (MOP) membranes, FlashPlate, [3H]-Naloxone
# T5 construct: purchased Perkin Elmer Biosignal
# Procedure, shortened: as §1
# Human opioid (ORL1) = biological target: T6, Human opioid (ORL1) (Homo sapiens, UniProt P41146); assay: Radioligand binding, human opioid ORL1 membranes, FlashPlate, [125I]-Nociceptin
# T6 construct: purchased Perkin Elmer Biosignal
# Procedure, shortened: as §1
# Human κ-Opioid (KOP) = biological target: T7, Human κ-Opioid (KOP) (Homo sapiens, UniProt P41145); assay: Radioligand binding, human κ-opioid (KOP) membranes, filtration, [3H]-Diprenorphine
# T7 construct: purchased Perkin Elmer Biosignal
# Procedure, shortened: as §2
# Human δ-opioid (DOP) = biological target: T8, Human δ-opioid (DOP) (Homo sapiens, UniProt P41143); assay: Radioligand binding, human δ-opioid (DOP) membranes, FlashPlate, [3H]-Bremazocine
# T8 construct: purchased Perkin Elmer Biosignal
# Procedure, shortened: as §1
# Human Melanocortin (MC3) = biological target: T9, Human Melanocortin (MC3) (Homo sapiens, UniProt P41968); assay: Radioligand binding, human melanocortin MC3 membranes, FlashPlate, [125I]-NDP-αMSH
# T9 construct: purchased Perkin Elmer Biosignal
# Procedure, shortened: as §1
# Mouse urotensin (mUR2) = biological target: T10, Mouse urotensin (mUR2) (Mus musculus, UniProt Q8VIH9); assay: Radioligand binding, mouse urotensin mUR2 membranes, FlashPlate, [125I]-Urotensin II
# T10 construct: purchased Perkin Elmer Biosignal
# T10 sequence (Q8VIH9 1-385): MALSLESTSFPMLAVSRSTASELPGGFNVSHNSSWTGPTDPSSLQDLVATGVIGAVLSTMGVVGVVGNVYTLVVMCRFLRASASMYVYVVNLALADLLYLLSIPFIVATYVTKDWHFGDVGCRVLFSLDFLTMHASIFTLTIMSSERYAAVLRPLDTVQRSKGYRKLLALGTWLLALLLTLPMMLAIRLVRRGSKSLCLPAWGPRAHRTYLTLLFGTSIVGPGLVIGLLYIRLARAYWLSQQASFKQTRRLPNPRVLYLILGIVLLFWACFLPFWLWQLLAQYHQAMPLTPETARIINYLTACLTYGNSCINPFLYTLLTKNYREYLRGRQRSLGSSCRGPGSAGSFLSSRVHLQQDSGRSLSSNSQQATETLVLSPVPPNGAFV
# Procedure, shortened: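 Cloned mouse urotensin (mUR2) receptor membranes from Perkin Elmer Biosignal were immobilized in FlashPlate microplates using a proprietary coating. Each well got 19.5 μl buffer, then 0.5 μl of DMSO, reference ligand, or compound. Adding 5 μl of [125I]-Urotensin II, diluted to 5× final concentration in binding buffer, started binding. Plates were sealed with TopSeal-A and incubated 1 hour at room temperature in the dark. Wells were counted for 30 seconds each on a TopCount after a 60-second delay, and percentage inhibition was calculated.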
# [2] = biological target: T11, Human melanin-concentrating hormone (MCH1) (Homo sapiens, UniProt Q99705); assay: Radioligand binding, human melanin-concentrating hormone MCH1 membranes, FlashPlate, [125I]-S36057
# T11 construct: purchased Perkin Elmer Biosignal
# Procedure, shortened: as §1
# T7 sequence (P41145 whole entry): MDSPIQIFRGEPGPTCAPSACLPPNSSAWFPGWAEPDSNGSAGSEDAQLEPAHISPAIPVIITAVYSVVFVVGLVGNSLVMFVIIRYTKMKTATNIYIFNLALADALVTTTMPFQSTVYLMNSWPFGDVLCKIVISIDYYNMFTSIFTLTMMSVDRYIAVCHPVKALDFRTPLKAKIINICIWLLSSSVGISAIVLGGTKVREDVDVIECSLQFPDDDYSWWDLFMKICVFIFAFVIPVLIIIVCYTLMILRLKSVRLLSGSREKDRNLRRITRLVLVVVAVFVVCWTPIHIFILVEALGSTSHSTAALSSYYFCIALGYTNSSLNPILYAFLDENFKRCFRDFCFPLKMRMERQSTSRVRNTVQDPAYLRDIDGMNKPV
# T9 sequence (P41968 whole entry): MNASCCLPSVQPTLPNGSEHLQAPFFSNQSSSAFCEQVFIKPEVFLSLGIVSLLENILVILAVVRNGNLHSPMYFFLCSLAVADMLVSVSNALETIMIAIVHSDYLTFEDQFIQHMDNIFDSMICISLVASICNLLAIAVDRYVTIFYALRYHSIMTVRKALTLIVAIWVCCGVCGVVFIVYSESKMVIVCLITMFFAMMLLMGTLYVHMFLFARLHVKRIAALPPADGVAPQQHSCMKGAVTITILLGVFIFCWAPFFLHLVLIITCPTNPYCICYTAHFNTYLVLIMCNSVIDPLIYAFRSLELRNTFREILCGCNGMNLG
# T2 sequence (P33032 whole entry): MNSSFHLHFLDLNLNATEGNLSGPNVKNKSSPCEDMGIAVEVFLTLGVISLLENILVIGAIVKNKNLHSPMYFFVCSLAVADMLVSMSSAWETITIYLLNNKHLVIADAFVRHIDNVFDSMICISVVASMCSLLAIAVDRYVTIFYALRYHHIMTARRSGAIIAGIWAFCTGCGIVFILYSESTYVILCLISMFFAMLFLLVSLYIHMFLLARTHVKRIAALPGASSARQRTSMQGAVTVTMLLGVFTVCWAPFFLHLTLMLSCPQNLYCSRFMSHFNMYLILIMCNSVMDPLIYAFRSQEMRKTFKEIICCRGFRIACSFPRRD
# T1 sequence (P32245 whole entry): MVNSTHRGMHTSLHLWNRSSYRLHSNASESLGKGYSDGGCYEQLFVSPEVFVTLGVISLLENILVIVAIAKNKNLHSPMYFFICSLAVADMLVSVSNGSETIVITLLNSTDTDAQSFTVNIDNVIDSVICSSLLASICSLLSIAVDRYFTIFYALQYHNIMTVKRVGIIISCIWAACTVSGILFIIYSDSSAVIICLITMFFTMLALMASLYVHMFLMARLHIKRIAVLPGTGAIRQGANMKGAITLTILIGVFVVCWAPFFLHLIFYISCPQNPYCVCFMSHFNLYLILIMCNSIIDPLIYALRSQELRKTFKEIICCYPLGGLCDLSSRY
# T5 sequence (P35372 whole entry): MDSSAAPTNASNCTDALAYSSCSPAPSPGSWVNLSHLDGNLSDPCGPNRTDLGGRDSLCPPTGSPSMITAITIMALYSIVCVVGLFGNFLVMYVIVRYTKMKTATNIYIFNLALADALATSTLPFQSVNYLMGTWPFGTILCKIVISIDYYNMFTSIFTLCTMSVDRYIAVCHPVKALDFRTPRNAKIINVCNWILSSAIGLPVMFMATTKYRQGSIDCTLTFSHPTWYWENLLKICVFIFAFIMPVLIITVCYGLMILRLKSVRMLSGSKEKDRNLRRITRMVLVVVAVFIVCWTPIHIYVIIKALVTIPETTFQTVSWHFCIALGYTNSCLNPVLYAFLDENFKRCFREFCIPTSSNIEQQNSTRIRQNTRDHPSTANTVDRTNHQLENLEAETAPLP
# T11 sequence (Q99705 whole entry): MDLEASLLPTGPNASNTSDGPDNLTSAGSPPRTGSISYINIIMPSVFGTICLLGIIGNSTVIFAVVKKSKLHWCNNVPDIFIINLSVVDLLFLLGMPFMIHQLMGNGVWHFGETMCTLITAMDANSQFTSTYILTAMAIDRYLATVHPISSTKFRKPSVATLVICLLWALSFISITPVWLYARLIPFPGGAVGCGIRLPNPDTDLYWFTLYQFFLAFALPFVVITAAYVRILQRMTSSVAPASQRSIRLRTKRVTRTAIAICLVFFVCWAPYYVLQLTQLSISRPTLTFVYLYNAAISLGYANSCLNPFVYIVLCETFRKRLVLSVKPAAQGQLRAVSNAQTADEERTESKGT
# T8 sequence (P41143 whole entry): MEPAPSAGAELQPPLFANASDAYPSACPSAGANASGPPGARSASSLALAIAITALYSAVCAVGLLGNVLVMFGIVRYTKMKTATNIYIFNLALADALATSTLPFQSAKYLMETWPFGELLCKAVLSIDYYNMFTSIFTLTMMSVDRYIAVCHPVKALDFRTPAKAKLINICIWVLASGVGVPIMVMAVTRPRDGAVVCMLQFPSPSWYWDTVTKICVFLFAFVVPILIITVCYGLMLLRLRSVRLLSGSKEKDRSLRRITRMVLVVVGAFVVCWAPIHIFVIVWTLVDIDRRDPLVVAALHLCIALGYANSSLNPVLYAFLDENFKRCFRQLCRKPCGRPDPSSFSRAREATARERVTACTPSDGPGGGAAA
# T4 sequence (P25103 whole entry): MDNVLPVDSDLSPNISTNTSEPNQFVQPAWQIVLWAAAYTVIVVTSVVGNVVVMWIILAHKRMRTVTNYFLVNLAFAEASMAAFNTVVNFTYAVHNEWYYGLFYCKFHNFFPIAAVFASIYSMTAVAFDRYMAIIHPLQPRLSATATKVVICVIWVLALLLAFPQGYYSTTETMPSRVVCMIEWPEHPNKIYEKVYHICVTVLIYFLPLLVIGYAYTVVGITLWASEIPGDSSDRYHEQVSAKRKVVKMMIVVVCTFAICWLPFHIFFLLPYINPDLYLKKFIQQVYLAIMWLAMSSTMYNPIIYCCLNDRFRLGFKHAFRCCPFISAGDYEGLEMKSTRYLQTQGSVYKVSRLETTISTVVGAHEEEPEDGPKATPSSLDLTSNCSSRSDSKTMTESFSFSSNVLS
# T6 sequence (P41146 whole entry): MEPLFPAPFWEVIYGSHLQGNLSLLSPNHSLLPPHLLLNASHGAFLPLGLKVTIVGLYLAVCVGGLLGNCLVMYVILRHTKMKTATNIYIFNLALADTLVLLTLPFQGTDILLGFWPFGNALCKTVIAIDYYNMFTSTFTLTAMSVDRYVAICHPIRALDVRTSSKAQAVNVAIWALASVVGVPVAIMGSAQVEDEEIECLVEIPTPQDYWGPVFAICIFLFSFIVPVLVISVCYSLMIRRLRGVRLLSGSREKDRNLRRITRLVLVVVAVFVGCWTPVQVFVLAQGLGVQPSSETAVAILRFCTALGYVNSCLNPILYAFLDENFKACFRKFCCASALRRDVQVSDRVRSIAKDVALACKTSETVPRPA
compound,measurement,setting,value
NCCC(=O)N[C@H]1C(OCc2ccc3ccccc3c2)O[C@H](COCc2ccc3ccccc3c2)[C@@H](O)[C@@H]1OCc1ccc(Cl)cc1 (stereo partly shown) [compound 436],A4: inhibition of radioligand binding,"Human Melanocortin (MC4); [125I]-NDP-αMSH, human MC4 membranes",+ (“+” indicates greater than 50% inhibition at 10 μM)
same,A5: inhibition of radioligand binding,"Human melanocortin (MC5); [125I]-NDP-αMSH, human MC5 membranes",+ (“+” indicates greater than 50% inhibition at 10 μM)
same,A9: inhibition of radioligand binding,"[1]; [125I]-PYY, human NPY-Y1 membranes",− (“−” indicates less than 50% inhibition at 10 μM)
same,A8: inhibition of radioligand binding,"Human neurokinin (NK1); [125I]-Substance P, human NK1 membranes",+ (“+” indicates greater than 50% inhibition at 10 μM)
same,A7: inhibition of radioligand binding,"Human μ-opioid (MOP); [3H]-Naloxone, human MOP membranes",− (“−” indicates less than 50% inhibition at 10 μM)
same,A10: inhibition of radioligand binding,"Human opioid (ORL1); [125I]-Nociceptin, human ORL1 membranes",− (“−” indicates less than 50% inhibition at 10 μM)
same,A2: inhibition of radioligand binding,"Human κ-Opioid (KOP); [3H]-Diprenorphine, human KOP membranes",− (“−” indicates less than 50% inhibition at 10 μM)
same,A1: inhibition of radioligand binding,"Human δ-opioid (DOP); [3H]-Bremazocine, human DOP membranes",− (“−” indicates less than 50% inhibition at 10 μM)
same,A3: inhibition of radioligand binding,"Human Melanocortin (MC3); [125I]-NDP-αMSH, human MC3 membranes",+ (“+” indicates greater than 50% inhibition at 10 μM)
same,A11: inhibition of radioligand binding,"Mouse urotensin (mUR2); [125I]-Urotensin II, mouse mUR2 membranes",− (“−” indicates less than 50% inhibition at 10 μM)
same,A6: inhibition of radioligand binding,"[2]; [125I]-S36057, human MCH1 membranes",+ (“+” indicates greater than 50% inhibition at 10 μM)
CO[C@H]1[C@H](O)[C@@H](COCc2ccc(Cl)cc2)OC(OCc2ccc(Cl)cc2)[C@@H]1NC(=O)CNC(=N)N (stereo partly shown) [compound 105],"A4 radioligand binding, percentage inhibition",Human Melanocortin (MC4); [125I]-NDP-αMSH,+ (“+” indicates greater than 50% inhibition at 10 μM)
same,"A5 radioligand binding, percentage inhibition",Human melanocortin (MC5); [125I]-NDP-αMSH,+ (“+” indicates greater than 50% inhibition at 10 μM)
same,"A9 radioligand binding, percentage inhibition",[1]; [125I]-PYY,− (“−” indicates less than 50% inhibition at 10 μM)
same,"A8 radioligand binding, percentage inhibition",Human neurokinin (NK1); [125I]-Substance P,+ (“+” indicates greater than 50% inhibition at 10 μM)
same,"A7 radioligand binding, percentage inhibition",Human μ-opioid (MOP); [3H]-Naloxone,− (“−” indicates less than 50% inhibition at 10 μM)
same,"A10 radioligand binding, percentage inhibition",Human opioid (ORL1); [125I]-Nociceptin,− (“−” indicates less than 50% inhibition at 10 μM)
same,"A2 radioligand binding, percentage inhibition",Human κ-Opioid (KOP); [3H]-Diprenorphine,− (“−” indicates less than 50% inhibition at 10 μM)
same,"A1 radioligand binding, percentage inhibition",Human δ-opioid (DOP); [3H]-Bremazocine,− (“−” indicates less than 50% inhibition at 10 μM)
same,"A3 radioligand binding, percentage inhibition",Human Melanocortin (MC3); [125I]-NDP-αMSH,− (“−” indicates less than 50% inhibition at 10 μM)
same,"A11 radioligand binding, percentage inhibition",Mouse urotensin (mUR2); [125I]-Urotensin II,− (“−” indicates less than 50% inhibition at 10 μM)
same,"A6 radioligand binding, percentage inhibition",[2]; [125I]-S36057,− (“−” indicates less than 50% inhibition at 10 μM)
COCC1OC(OCCc2ccccc2)C(NC(=O)CN)C(OCc2ccc(Cl)cc2)C1O (stereo not shown) [compound 219],A4: inhibition of radioligand binding,"Human Melanocortin (MC4); [125I]-NDP-αMSH, FlashPlate",− (“−” indicates less than 50% inhibition at 10 μM)
same,A5: inhibition of radioligand binding,"Human melanocortin (MC5); [125I]-NDP-αMSH, FlashPlate",+ (“+” indicates greater than 50% inhibition at 10 μM)
same,A9: inhibition of radioligand binding,"[1]; [125I]-PYY, FlashPlate",− (“−” indicates less than 50% inhibition at 10 μM)
same,A8: inhibition of radioligand binding,"Human neurokinin (NK1); [125I]-Substance P, filtration",+ (“+” indicates greater than 50% inhibition at 10 μM)
same,A7: inhibition of radioligand binding,"Human μ-opioid (MOP); [3H]-Naloxone, FlashPlate",− (“−” indicates less than 50% inhibition at 10 μM)
same,A10: inhibition of radioligand binding,"Human opioid (ORL1); [125I]-Nociceptin, FlashPlate",− (“−” indicates less than 50% inhibition at 10 μM)
same,A2: inhibition of radioligand binding,"Human κ-Opioid (KOP); [3H]-Diprenorphine, filtration",− (“−” indicates less than 50% inhibition at 10 μM)
same,A1: inhibition of radioligand binding,"Human δ-opioid (DOP); [3H]-Bremazocine, FlashPlate",− (“−” indicates less than 50% inhibition at 10 μM)
same,A3: inhibition of radioligand binding,"Human Melanocortin (MC3); [125I]-NDP-αMSH, FlashPlate",− (“−” indicates less than 50% inhibition at 10 μM)
same,A11: inhibition of radioligand binding,"Mouse urotensin (mUR2); [125I]-Urotensin II, FlashPlate",− (“−” indicates less than 50% inhibition at 10 μM)
same,A6: inhibition of radioligand binding,"[2]; [125I]-S36057, FlashPlate",− (“−” indicates less than 50% inhibition at 10 μM)
COC[C@H]1OC(OCc2ccc(Cl)cc2)[C@H](NC(=O)CNC(=N)N)[C@@H](OCc2ccc(Cl)cc2)[C@@H]1O (stereo partly shown) [compound 37],A4 radioligand binding inhibition,Human Melanocortin (MC4); human melanocortin MC4 membranes,+ (“+” indicates greater than 50% inhibition at 10 μM)
same,A5 radioligand binding inhibition,Human melanocortin (MC5); human melanocortin MC5 membranes,+ (“+” indicates greater than 50% inhibition at 10 μM)
same,A9 radioligand binding inhibition,[1]; human NPY-Y1 membranes,− (“−” indicates less than 50% inhibition at 10 μM)
same,A8 radioligand binding inhibition,Human neurokinin (NK1); human neurokinin NK1 membranes,− (“−” indicates less than 50% inhibition at 10 μM)
same,A7 radioligand binding inhibition,Human μ-opioid (MOP); human μ-opioid (MOP) membranes,− (“−” indicates less than 50% inhibition at 10 μM)
same,A10 radioligand binding inhibition,Human opioid (ORL1); human ORL1 membranes,− (“−” indicates less than 50% inhibition at 10 μM)
same,A2 radioligand binding inhibition,Human κ-Opioid (KOP); human κ-opioid (KOP) membranes,− (“−” indicates less than 50% inhibition at 10 μM)
same,A1 radioligand binding inhibition,Human δ-opioid (DOP); human δ-opioid (DOP) membranes,− (“−” indicates less than 50% inhibition at 10 μM)
same,A3 radioligand binding inhibition,Human Melanocortin (MC3); human melanocortin MC3 membranes,+ (“+” indicates greater than 50% inhibition at 10 μM)
same,A11 radioligand binding inhibition,Mouse urotensin (mUR2); mouse urotensin mUR2 membranes,− (“−” indicates less than 50% inhibition at 10 μM)
same,A6 radioligand binding inhibition,[2]; human MCH1 membranes,+ (“+” indicates greater than 50% inhibition at 10 μM)
CSC1O[C@H](COCc2ccc3ccccc3c2)[C@@H](O)[C@@H](OCc2ccc(-c3ccccc3)cc2)[C@H]1NC(=O)CCCNC(=N)N (stereo partly shown) [compound 300],"A4: inhibition of radioligand binding, human melanocortin (MC4)",Human Melanocortin (MC4); [125I]-NDP-αMSH,− (“−” indicates less than 50% inhibition at 10 μM)
same,"A5: inhibition of radioligand binding, human melanocortin (MC5)",Human melanocortin (MC5); [125I]-NDP-αMSH,+ (“+” indicates greater than 50% inhibition at 10 μM)
same,"A9: inhibition of radioligand binding, human neuropeptide Y (NPY-Y1)",[1]; [125I]-PYY,− (“−” indicates less than 50% inhibition at 10 μM)
same,"A8: inhibition of radioligand binding, human neurokinin (NK1)",Human neurokinin (NK1); [125I]-Substance P,+ (“+” indicates greater than 50% inhibition at 10 μM)
same,"A7: inhibition of radioligand binding, human μ-opioid (MOP)",Human μ-opioid (MOP); [3H]-Naloxone,− (“−” indicates less than 50% inhibition at 10 μM)
same,"A10: inhibition of radioligand binding, human opioid (ORL1)",Human opioid (ORL1); [125I]-Nociceptin,− (“−” indicates less than 50% inhibition at 10 μM)
same,"A2: inhibition of radioligand binding, human κ-opioid (KOP)",Human κ-Opioid (KOP); [3H]-Diprenorphine,− (“−” indicates less than 50% inhibition at 10 μM)
same,"A1: inhibition of radioligand binding, human δ-opioid (DOP)",Human δ-opioid (DOP); [3H]-Bremazocine,− (“−” indicates less than 50% inhibition at 10 μM)
same,"A3: inhibition of radioligand binding, human melanocortin (MC3)",Human Melanocortin (MC3); [125I]-NDP-αMSH,− (“−” indicates less than 50% inhibition at 10 μM)
same,"A11: inhibition of radioligand binding, mouse urotensin (mUR2)",Mouse urotensin (mUR2); [125I]-Urotensin II,− (“−” indicates less than 50% inhibition at 10 μM)
same,"A6: inhibition of radioligand binding, human melanin-concentrating hormone (MCH1)",[2]; [125I]-S36057,− (“−” indicates less than 50% inhibition at 10 μM)

# Reference: patent US20080009418A1, “Selective Inhibitors” (Alchemia LTD., priority 2004, published 2008)
